Reference: the supplement of paper PMC10307832

Columns and labels:
Test in all cases: relative viability (nuclei count vs DMSO), 5 days (fraction); higher = more cells survive
[1] = compound: CC1=C(CC(=O)O)c2cc(F)ccc2/C1=C\c1ccc([S+](C)[O-])cc1 [Sulindac] + CC(=O)Nc1cccc(-n2c(=O)n(C3CC3)c(=O)c3c(Nc4ccc(I)cc4F)n(C)c(=O)c(C)c32)c1 [Trametinib] (partner 0.02 µM)
Summary of the method: (§1)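 After 5 days of treatment, lung cancer cells in 1536-well plates were fixed and stained in a single step (final 0.05% Triton X-100, 1% formaldehyde, 1 ug/ml Hoechst) and their nuclei counted on 4× images. Treatment had been applied by pin tool the day after seeding as one drug alone or as a fixed anchor-drug dose with five library-drug doses (not always all listed) in √10 steps. Relative viability is the nuclei count of treated wells divided by that of vehicle wells, and values are medians of duplicate plates.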

[2] = compound: CC1=C(CC(=O)O)c2cc(F)ccc2/C1=C\c1ccc([S+](C)[O-])cc1 [Sulindac] + Nc1nc2[nH]cc(CCc3ccc(C(=O)N[C@@H](CCC(=O)O)C(=O)O)cc3)c2c(=O)[nH]1 [Pemetrexed] (partner 0.2 µM)
Summary of the method: as §1

[3] = compound: CN[C@@H]1C[C@H]2O[C@@](C)([C@@H]1OC)n1c3ccccc3c3c4c(c5c6ccccc6n2c5c31)C(=O)NC4 [Staurosporine] + CCNC(=O)c1noc(-c2cc(C(C)C)c(O)cc2O)c1-c1ccc(CN2CCOCC2)cc1 [Luminespib] (partner 0.01 µM)
Summary of the method: as §1

[4] = compound: CN[C@@H]1C[C@H]2O[C@@](C)([C@@H]1OC)n1c3ccccc3c3c4c(c5c6ccccc6n2c5c31)C(=O)NC4 [Staurosporine] + NC(=O)Nc1cc(-c2cccc(F)c2)sc1C(=O)N[C@H]1CCCNC1 [AZD7762] (partner 0.2 µM)
Summary of the method: as §1

Cell Line | relative viability ([1]; first compound 0.08 µM) | relative viability ([1]; first compound 0.253 µM) | relative viability ([1]; first compound 0.8 µM) | relative viability ([1]; first compound 2.53 µM) | relative viability ([1]; first compound 8 µM) | relative viability ([2]; first compound 0.08 µM) | relative viability ([2]; first compound 0.253 µM) | relative viability ([2]; first compound 0.8 µM) | relative viability ([2]; first compound 2.53 µM) | relative viability ([2]; first compound 8 µM) | relative viability ([3]; first compound 0.005 µM) | relative viability ([3]; first compound 0.01581 µM) | relative viability ([3]; first compound 0.05 µM) | relative viability ([3]; first compound 0.1581 µM) | relative viability ([3]; first compound 0.5 µM) | relative viability ([4]; first compound 0.005 µM) | relative viability ([4]; first compound 0.01581 µM) | relative viability ([4]; first compound 0.05 µM) | relative viability ([4]; first compound 0.1581 µM) | relative viability ([4]; first compound 0.5 µM)
NCI-H1755 | 0.886 | 0.751 | 0.775 | 0.812 | 0.89 | 0.421 | 0.448 | 0.631 | 0.444 | 0.462 | 0.276 | 0.214 | 0.155 | 0.195 | 0.155 | 0.318 | 0.228 | 0.214 | 0.224 | 0.224
LK-2 | 0.854 | 0.746 | 0.705 | 0.617 | 0.944 | 0.315 | 0.29 | 0.228 | 0.221 | 0.293 | 0.202 | – | 0.187 | 0.153 | 0.172 | 0.571 | 0.448 | 0.394 | 0.0558 | 0.0592
NCI-H3122 | 0.222 | 0.243 | 0.203 | 0.214 | 0.267 | 0.203 | 0.194 | 0.207 | 0.176 | 0.214 | 0.0697 | – | 0.0639 | 0.0502 | 0.0521 | – | – | 0.678 | – | 0.192
HOP-62 | 0.411 | 0.404 | 0.34 | 0.411 | 0.388 | 0.412 | 0.27 | 0.31 | 0.258 | 0.389 | 0.949 | 0.426 | 0.189 | 0.134 | 0.109 | 0.358 | 0.128 | – | 0.126 | 0.0794
NCI-H358 | 0.132 | 0.132 | 0.128 | 0.114 | 0.14 | 0.183 | 0.157 | 0.17 | 0.151 | 0.182 | 0.563 | 0.198 | 0.359 | 0.167 | 0.0923 | 0.339 | 0.378 | 0.253 | 0.195 | 0.172
BEN | 0.975 | 1.03 | 0.934 | 1.02 | 1.13 | 0.816 | 0.757 | 0.698 | 0.706 | 0.998 | 0.397 | 0.256 | 0.383 | 0.152 | 0.129 | 0.946 | 0.776 | 0.761 | 0.316 | 0.294
NCI-H460 | 0.178 | 0.195 | 0.114 | 0.366 | 0.132 | 0.0577 | 0.0612 | 0.0559 | 0.0599 | 0.0635 | 0.0316 | 0.0208 | 0.0244 | 0.0122 | 0.0179 | 0.656 | 0.532 | 0.741 | 0.0465 | 0.0251
ChaGo-K-1 | 1.05 | 0.963 | 0.817 | 0.914 | 0.903 | 0.269 | 0.247 | 0.302 | 0.262 | 0.275 | 0.7 | 0.344 | 0.374 | 0.185 | 0.176 | 0.912 | – | 0.615 | 0.148 | 0.135
SW 900 | 0.847 | 0.982 | – | – | 0.945 | 0.532 | 0.492 | – | – | 0.453 | 0.164 | 0.149 | 0.134 | 0.14 | 0.161 | 0.413 | 0.337 | 0.31 | 0.157 | 0.151
NCI-H1792 | 0.425 | 0.393 | – | 0.512 | 0.513 | 0.867 | 0.903 | – | 0.794 | 0.827 | 0.459 | 0.287 | 0.18 | 0.188 | 0.199 | 0.227 | 0.0748 | 0.0605 | 0.0466 | 0.0293
NCI-H2085 | 0.513 | 0.569 | 0.576 | 0.435 | 0.384 | 0.921 | 0.903 | 0.766 | 0.898 | 0.897 | 0.39 | 0.315 | 0.2 | 0.227 | 0.171 | 0.751 | 0.42 | 0.47 | 0.245 | 0.276
LC-2-ad | 1.02 | 1.01 | 0.769 | 0.928 | 0.915 | 0.29 | 0.27 | 0.273 | 0.263 | 0.254 | 0.976 | 0.41 | 0.341 | 0.219 | 0.185 | – | 0.276 | 0.172 | 0.12 | 0.0995
201T | 0.763 | 0.732 | 0.717 | 0.695 | 0.712 | 0.329 | 0.325 | 0.339 | 0.323 | 0.366 | 1.03 | – | 0.693 | 0.349 | 0.334 | 0.599 | – | 0.498 | 0.579 | 0.342
NCI-H1395 | 0.966 | 0.999 | 0.939 | 0.949 | 1.17 | 0.931 | 1.02 | 0.828 | 0.855 | 1.12 | 0.613 | 0.507 | 0.349 | 0.318 | 0.346 | 0.38 | 0.305 | 0.34 | 0.303 | 0.302
